The test system of one experiment is SW626. Put plainly: Antiproliferative effect, single agents and combination. In kind it is cell-based, human. To be noted: single agent 1 μM, 72 h, single experiments. The method, then: (§1) For the growth inhibition assays, cells were seeded at a density of 3500 cells per well in 96 cluster tissue culture plates, and treated 24 hr after seeding with different concentrations of 4-oxo-4-HPR or 4-HPR. 4-oxo-4-HPR was dissolved in absolute ethanol and 4-HPR (obtained from Dr. J. A. Crowell —NCI Bethesda, Md., USA) was dissolved in Me2SO. […] Control cultures received the same amount of ethanol or Me2SO as the treated cultures. 72 hr after treatment cell number was estimated by using the sulforhodamine B assay according to Monks et al., (J. Natl. Cancer, 1991, 11: 757–766). The survival of treated cells was calculated for the various drug concentrations as percentage of the survival of control cells. The antiproliferative activity of 4-oxo-4-HPR and 4-HPR in each cell line, was tested in three separate experiments and the average values ±SD are reported in FIGS. 2, 3, and 4.
The antiproliferative effect of the combination of the two drugs, administered at one single dose, was also tested in other ovarian carcinoma cell lines and in breast tumor cell lines. The type of interaction between 4-HPR and 4-oxo-4-HPR was assessed by the method of Drevinko et al., as described in Cancer Biochem. Biophys., 1976, 1:187–195. […] The combination index (CI) was calculated as follows: survival fraction (SF) of the combination of 4-HPR+4-oxo-4-HPR divided by (SF 4-HPR×SF 4-oxo-4-HPR). […]

The next experiment has as its system OAW42. Description: Growth inhibition (sulforhodamine B assay). In kind it is cell-based. To be noted: Homo sapiens, read-out: 50% Inhibitory Concentrations (IC50) at 72 h. How it is done:
(§2) The following human ovarian carcinoma cell lines were tested: A2780 was obtained from Dr. R. F. Ozols (National Cancer Institute, Bethesda, Md., USA); IGROV-1 was obtained from Dr. J. Benard (Villejuif, France); OVCA432 was obtained from Dr. R. C. Knapp (Boston, Mass., USA); OAW42 and SKOV-3 were purchased from ATCC (Rockville, Md., USA). A2780/HPR, a 4-HPR— resistant ovarian carcinoma cell line, was obtained in our laboratory by continuous exposure of A2780 cells to increasing concentrations of 4-EPR as previously described (Appierto et al., Br. J. Cancer, 2001, 84:1528–1534; Prinetti et al., J. Biol. Chem., 2003, 278:5574–5583). Briefly, cells surviving 60 transplants in 4-HPR —containing medium (3 transplants at 1 μM, 11 transplants at 2 μM, 8 transplants at 3 μM, and 38 transplants at 5 μM) were cloned by limiting dilution. […] Therefore, A2780/HPR cells were continuously maintained in 5 μM 4-HPR and seeded without 4-HPR in all the experiments performed to test their sensitivity to 4-oxo-4-HPR.
(§3) The following human breast tumor cell lines, obtained from Dr. R. Sutherland (Garvan Institute, Sydney, Australia) were tested: T-47D, BT-20 and MCF-7. The following human neuroblastoma cell lines, purchased from ATCC, were tested: SK-N-BE, SK-N-SH, SK-N-MC, and GI-LI-N. All cell lines were grown in monolayer, in medium containing 10% fetal bovine serum (Invitrogen) in 5% CO2 at 37° C. The medium for A2780, A2780/HPR, IGROV-1, OVCA432, SKOV-3, T-47D, BT-20, MCF-7, GI-LI-N and SK-N-BE cells was RPMI 1640 (Cambrex, Verviers, Belgium) and the medium for OAW42, SK-N-MC and SK-N-SH cells was EMEM (ATCC).
as §1

The subject of a further experiment is SKOV-3. Description: Growth inhibition (sulforhodamine B assay). To be noted: Homo sapiens, read-out: 50% Inhibitory Concentrations (IC50) at 72 h. In kind it is cell-based. How it is done: as §2, §3, §1
(In general: In SRB staining, fixed cells bind dye roughly in proportion to their protein.)

The subject of the next experiment is A2780. Put plainly: Growth inhibition (sulforhodamine B assay), single agents and combination. In kind it is cell-based. The note with it: Homo sapiens, read-out: 50% Inhibitory Concentrations (IC50) at 72 h. How it is done: The following human ovarian carcinoma cell lines were tested: A2780 was obtained from Dr. R. F. Ozols (National Cancer Institute, Bethesda, Md., USA); IGROV-1 was obtained from Dr. J. Benard (Villejuif, France); OVCA432 was obtained from Dr. R. C. Knapp (Boston, Mass., USA); OAW42 and SKOV-3 were purchased from ATCC (Rockville, Md., USA). A2780/HPR, a 4-HPR— resistant ovarian carcinoma cell line, was obtained in our laboratory by continuous exposure of A2780 cells to increasing concentrations of 4-EPR as previously described (Appierto et al., Br. J. Cancer, 2001, 84:1528–1534; Prinetti et al., J. Biol. Chem., 2003, 278:5574–5583). Briefly, cells surviving 60 transplants in 4-HPR —containing medium (3 transplants at 1 μM, 11 transplants at 2 μM, 8 transplants at 3 μM, and 38 transplants at 5 μM) were cloned by limiting dilution. […]
For the growth inhibition assays, cells were seeded at a density of 3500 cells per well in 96 cluster tissue culture plates, and treated 24 hr after seeding with different concentrations of 4-oxo-4-HPR or 4-HPR. […] The survival of treated cells was calculated for the various drug concentrations as percentage of the survival of control cells. […]
Studies were performed to assess whether 4-oxo-4-HPR potentiates the tumor growth inhibitory effects of 4-HPR. […] The fractional survival (f) after 3 days of treatment was calculated for each experimental condition. […]

A further experiment deals with SK-N-MC. Put plainly: Growth inhibition (sulforhodamine B assay). In kind it is cell-based, human. The note with it: for IC50: Homo sapiens, 72 h, read-out: 50% Inhibitory Concentrations (IC50) at 72 h. The method, then:
as §3, §1

A further experiment relates to GI-LI-N. Description: Growth inhibition (sulforhodamine B assay). In kind it is cell-based, human. To be noted: for IC50: Homo sapiens, 72 h, read-out: 50% Inhibitory Concentrations (IC50) at 72 h. How it is done: as §3, §1
A further experiment concerns SK-N-BE. Put plainly: Growth inhibition (sulforhodamine B assay). In kind it is cell-based, human. The note with it: for IC50: Homo sapiens, 72 h, read-out: 50% Inhibitory Concentrations (IC50) at 72 h. The method, then: as §3, §1
A further experiment deals with SK-N-SH. Put plainly: Growth inhibition (sulforhodamine B assay). In kind it is cell-based, human. The note with it: for IC50: Homo sapiens, 72 h, read-out: 50% Inhibitory Concentrations (IC50) at 72 h. How it is done:
as §3, §1

In another experiment the test system is OVCA432. Description: Growth inhibition (sulforhodamine B assay), single agents and combination. In kind it is cell-based, human. The method, then: as §2, §3, §1
(§4) The antiproliferative effect of the combination of the two drugs, administered at one single dose, was also tested in other ovarian carcinoma cell lines and in breast tumor cell lines. The type of interaction between 4-HPR and 4-oxo-4-HPR was assessed by the method of Drevinko et al., as described in Cancer Biochem. Biophys., 1976, 1:187–195. For this evaluation the drugs were assumed to provide independent effects. The combination index (CI) was calculated as follows: survival fraction (SF) of the combination of 4-HPR+4-oxo-4-HPR divided by (SF 4-HPR×SF 4-oxo-4-HPR). The results for CI are defined as follows: CI=1 indicates an additive effect, CI<1 indicates a supra-additive effect and CI>1 indicates a sub-additive effect.

The test system of the next experiment is A2780/HPR. The description is as above. In kind it is cell-based, human. To be noted: for Survival (% control cells): single experiments. The method, then:
as §2, §3, §1, §4

The test system of another experiment is IGROV-1. The experiment is described as above. In kind it is cell-based, human. How it is done: as §2, §3, §1, §4
[1] abbreviates: OVCA432; single agent 1 μM; 72 h; single experiments.
The mark [2] stands for this setting: IGROV-1; single agent 1 μM; 72 h; single experiments.

SMILES strings stand for the structures. “And” between values parts separate entries of the source, which are not always exact repeats. Identical values can stand only once. Like-named read-outs stand apart in the source and are kept apart here.

Turning to `CC1=C(/C=C/C(C)=C/C=C/C(C)=C/C(=O)Nc2ccc(O)cc2)C(C)(C)CCC1` [4-HPR, N-(4-hydroxyphenyl)retinamide, reference compound], the “Survival (% control cells)” value with SW626 is 96 % control cells and 98 % control cells; in the experiment on OVCA432 (setting [1]) it was 115 % control cells and 105 % control cells; with A2780/HPR (A2780/HPR, 4-HPR 5 μM, 72 h) it was 81 % control cells and 89 % control cells; in the experiment with IGROV-1 (setting [2]), 97 % control cells and 91 % control cells. The IC50 was 10000 nM in the experiment on OAW42 (OAW-42, OAW42, 72 h); 8000 nM in the experiment on SKOV-3 (SK-OV-3, SKOV-3, 72 h); 1500 nM with A2780 (A2780, 72 h, calculated from graphs); 700 nM in the experiment with SK-N-MC; 700 nM with GI-LI-N (GI-LI-N); 5000 nM in the experiment on SK-N-BE (SK-N-BE). Moreover, the IC50 stood at 5000 nM in the experiment with SK-N-SH; 8000 nM in the experiment with OVCA432 (Homo sapiens; OVCA432; 72 h; read-out: 50% Inhibitory Concentrations (IC50) at 72 h); 8000 nM with A2780/HPR (Homo sapiens, A2780/HPR (4-HPR-resistant), 72 h, read-out: 50% Inhibitory Concentrations (IC50) at 72 h); 5000 nM with IGROV-1 (Homo sapiens; IGROV-1; 72 h; read-out: 50% Inhibitory Concentrations (IC50) at 72 h).

With `CC1=C(/C=C/C(C)=C/C=C/C(C)=C/C(=O)Nc2ccc(O)cc2)C(C)(C)CCC1=O` [4-oxo-4-HPR, 4-oxo-N-(4-hydroxyphenyl)retinamide], the “Survival (% control cells)” value was 90 % control cells and 98 % control cells in the experiment on SW626; 98 % control cells and 102 % control cells in the experiment on OVCA432 (setting [1]); 96 % control cells and 84 % control cells and 71 % control cells with A2780/HPR (A2780/HPR, 4-oxo-4-HPR 0.3 μM, 72 h); 96 % control cells and 76 % control cells in the experiment on IGROV-1 (setting [2]). Moreover, the IC50 with OAW42 (OAW-42, 72 h) was 3000 nM; with SKOV-3 (SK-OV-3, 72 h), 2000 nM; with A2780 (A2780, 72 h) it was 600 nM; in the experiment with SK-N-MC, 400 nM; in the experiment with GI-LI-N it was 600 nM; in the experiment with SK-N-BE it was 1000 nM. The IC50 with SK-N-SH worked out at 3000 nM; in the experiment on OVCA432 (Homo sapiens, OVCA432, 72 h, read-out: 50% Inhibitory Concentrations (IC50) at 72 h) it was 2500 nM; with IGROV-1 (Homo sapiens, IGROV-1, 72 h, read-out: 50% Inhibitory Concentrations (IC50) at 72 h), 2000 nM. In addition, the “cell sensitivity (FIG. 4), compared with 4-HPR, in words” value in the experiment on SK-N-MC (72 hr) is listed as “more sensitive only at the lowest concentration tested (0.3 μM)”; in the experiment with GI-LI-N (GI-LI-N, 72 hr), “equally sensitive”; in the experiment with SK-N-BE (SK-N-BE, 72 hr), “more sensitive to 4-oxo-HPR than to 4-HPR”; in the experiment on SK-N-SH (72 hr), “more sensitive to 4-oxo-HPR than to 4-HPR”. The “tumor cell survival (FIG. 2), in words” value in the experiment on A2780/HPR (A2780/HPR, 72 hr, 0.3 to 10 μM) was “highly effective”.

These data come from patent US7169813B2, “4-oxo-fenretinide, administered alone and in combination with fenretinide, as preventive and therapeutic agent for cancer” (Fondazione IRCCS “Istituto Nazionale Dei Tumori”, priority 2004, dated 2007).
